Experimental data reported in PubChem BioAssay (NCI).
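Five compound concentrations were applied to cells in 96-well plates for 48 hours; endpoints were derived by simple linear interpolation of the resulting dose-response curve. Definition used: TGI = concentration required for complete inhibition of growth.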

Key:
Assay in all cases: NCI tumour cell line growth inhibition, 48 h
DLD-1 colon = test system: DLD-1 colon
NCI/ADR-RES ovarian = test system: NCI/ADR-RES ovarian
SK-OV-3 ovarian = test system: SK-OV-3 ovarian
CAKI-1 renal = test system: CAKI-1 renal
RPMI-8226 leukemia = test system: RPMI-8226 leukemia
SW-620 colon = test system: SW-620 colon
SF-268 CNS = test system: SF-268 CNS
SNB-75 CNS = test system: SNB-75 CNS
XF 498 CNS = test system: XF 498 CNS
SK-MEL-2 melanoma = test system: SK-MEL-2 melanoma
ACHN renal = test system: ACHN renal
LOX IMVI melanoma = test system: LOX IMVI melanoma
MDA-MB-231 breast = test system: MDA-MB-231 breast
HCC-2998 colon = test system: HCC-2998 colon
K-562 leukemia = test system: K-562 leukemia
MDA-N = test system: MDA-N
IGROV1 ovarian = test system: IGROV1 ovarian
DU-145 prostate = test system: DU-145 prostate
MALME-3M melanoma = test system: MALME-3M melanoma
TK-10 renal = test system: TK-10 renal
HOP-18 NSCLC = test system: HOP-18 NSCLC
CCRF-CEM leukemia = test system: CCRF-CEM leukemia
OVCAR-8 ovarian = test system: OVCAR-8 ovarian
UO-31 renal = test system: UO-31 renal
LXFL 529 NSCLC = test system: LXFL 529 NSCLC
NCI-H460 lung = test system: NCI-H460 lung
UACC-257 melanoma = test system: UACC-257 melanoma
MOLT-4 leukemia = test system: MOLT-4 leukemia
BT-549 breast = test system: BT-549 breast
NCI-H23 lung = test system: NCI-H23 lung
SK-MEL-5 melanoma = test system: SK-MEL-5 melanoma
T-47D breast = test system: T-47D breast
RXF-631 renal = test system: RXF-631 renal
DMS 273 small cell lung = test system: DMS 273 small cell lung
OVCAR-5 ovarian = test system: OVCAR-5 ovarian
OVCAR-3 ovarian = test system: OVCAR-3 ovarian
SN12C renal = test system: SN12C renal
U251 CNS = test system: U251 CNS
HOP-92 NSCLC = test system: HOP-92 NSCLC
SNB-78 CNS = test system: SNB-78 CNS
SF-539 CNS = test system: SF-539 CNS
MDA-MB-435 = test system: MDA-MB-435
A498 renal = test system: A498 renal
SK-MEL-28 melanoma = test system: SK-MEL-28 melanoma
COLO 205 colon = test system: COLO 205 colon
SF-295 CNS = test system: SF-295 CNS
OVCAR-4 ovarian = test system: OVCAR-4 ovarian
KM20L2 colon = test system: KM20L2 colon
DMS 114 small cell lung = test system: DMS 114 small cell lung
HL-60(TB) leukemia = test system: HL-60(TB) leukemia
SNB-19 CNS = test system: SNB-19 CNS
NCI-H522 lung = test system: NCI-H522 lung
SN12K1 renal = test system: SN12K1 renal
KM12 colon = test system: KM12 colon
HT29 colon = test system: HT29 colon
PC-3 prostate = test system: PC-3 prostate
A549 NSCLC = test system: A549 NSCLC
HCT-116 colon = test system: HCT-116 colon
HS 578T breast = test system: HS 578T breast
MCF7 breast = test system: MCF7 breast
HCT-15 colon = test system: HCT-15 colon
SR leukemia = test system: SR leukemia
EKVX NSCLC = test system: EKVX NSCLC
HOP-62 NSCLC = test system: HOP-62 NSCLC
M19-MEL melanoma = test system: M19-MEL melanoma
NCI-H226 lung = test system: NCI-H226 lung
M14 melanoma = test system: M14 melanoma
RXF 393 renal = test system: RXF 393 renal
786-0 renal = test system: 786-0 renal
UACC-62 melanoma = test system: UACC-62 melanoma

c1ccc(CN2CCc3[nH]c4ccccc4c3C2)cc1
TGI (DLD-1 colon): > 100 µM | TGI (NCI/ADR-RES ovarian): > 63.3 µM | TGI (SK-OV-3 ovarian): 98.4 µM | TGI (CAKI-1 renal): > 100 µM | TGI (RPMI-8226 leukemia): 69.3 µM | TGI (SW-620 colon): 50 µM | TGI (SF-268 CNS): > 86.8 µM | TGI (SNB-75 CNS): > 100 µM | TGI (XF 498 CNS): 68.6 µM | TGI (SK-MEL-2 melanoma): 41.1 µM | TGI (ACHN renal): 99.8 µM | TGI (LOX IMVI melanoma): 40.7 µM | TGI (MDA-MB-231 breast): 48.9 µM | TGI (HCC-2998 colon): 30.1 µM | TGI (K-562 leukemia): 55.1 µM | TGI (MDA-N): 44 µM | TGI (IGROV1 ovarian): > 79.5 µM | TGI (DU-145 prostate): 78.3 µM | TGI (MALME-3M melanoma): 35 µM | TGI (TK-10 renal): > 71 µM | TGI (HOP-18 NSCLC): > 100 µM | TGI (CCRF-CEM leukemia): > 82.6 µM | TGI (OVCAR-8 ovarian): > 77.4 µM | TGI (UO-31 renal): 79.2 µM | TGI (LXFL 529 NSCLC): 48.6 µM | TGI (NCI-H460 lung): 31 µM | TGI (UACC-257 melanoma): 37.1 µM | TGI (MOLT-4 leukemia): 66.1 µM | TGI (BT-549 breast): > 100 µM | TGI (NCI-H23 lung): > 92.6 µM | TGI (SK-MEL-5 melanoma): 31.3 µM | TGI (T-47D breast): 47.2 µM | TGI (RXF-631 renal): 38.5 µM | TGI (DMS 273 small cell lung): > 100 µM | TGI (OVCAR-5 ovarian): > 96.3 µM | TGI (OVCAR-3 ovarian): > 74.7 µM | TGI (SN12C renal): > 78.7 µM | TGI (U251 CNS): 53.8 µM | TGI (HOP-92 NSCLC): 62.1 µM | TGI (SNB-78 CNS): > 100 µM | TGI (SF-539 CNS): 56.2 µM | TGI (MDA-MB-435): 46.7 µM | TGI (A498 renal): 88.1 µM | TGI (SK-MEL-28 melanoma): 32.8 µM | TGI (COLO 205 colon): 31.9 µM | TGI (SF-295 CNS): 65.9 µM | TGI (OVCAR-4 ovarian): 84.4 µM | TGI (KM20L2 colon): 26.3 µM | TGI (DMS 114 small cell lung): 47.3 µM | TGI (HL-60(TB) leukemia): 46.3 µM | TGI (SNB-19 CNS): > 95.7 µM | TGI (NCI-H522 lung): 42.4 µM | TGI (SN12K1 renal): 29.1 µM | TGI (KM12 colon): 45.9 µM | TGI (HT29 colon): 36.4 µM | TGI (PC-3 prostate): > 100 µM | TGI (A549 NSCLC): > 79.8 µM | TGI (HCT-116 colon): 43.6 µM | TGI (HS 578T breast): 79.9 µM | TGI (MCF7 breast): 31.9 µM | TGI (HCT-15 colon): 62.6 µM | TGI (SR leukemia): > 76.6 µM | TGI (EKVX NSCLC): > 86.8 µM | TGI (HOP-62 NSCLC): > 73.5 µM | TGI (M19-MEL melanoma): > 82.1 µM | TGI (NCI-H226 lung): > 96.8 µM | TGI (M14 melanoma): 33.1 µM | TGI (RXF 393 renal): > 100 µM | TGI (786-0 renal): 44.5 µM | TGI (UACC-62 melanoma): 66.9 µM
